Test results published in paper PMC10484922, “Discovery of a selective and biologically active low-molecular weight antagonist of human interleukin-1β” (Nature Communications, 2023).

Experiments:
[1] = test system: HEK-Blue IL-1β cells stimulated with hIL-1β; assay: HEK293 reporter gene assay, hIL-1β as trigger; assay type: cell-based, human
Method: (§1) We used HEK-Blue™ IL-1β cells that respond specifically to IL-1 (# hkb-il1b, InvivoGen). These cells can detect IL-1α and IL-1β, as these cytokines bind to the same receptor, IL-1R1. They express a Seap reporter gene under the control of the IFN-β minimal promoter fused to five NF-kappaB and five AP-1 binding sites. Thirty microliters (300,000 cells/ml) per well of a 384-well plate were plated overnight. Cells were then stimulated with graded concentrations of cytokines (hIL-1α or hIL-1β) in the absence or presence of canakinumab (Ilaris®, ILARI LYVI 150MG 22GLW.012, batch U003 0409)[22], anakinra (Kineret®, 100 mg/0.67 ml injectable solution, Sobi)[23], or compound (S)-2 (compounds were pre-mixed for 1 h with the cytokine prior to addition to cells) and further incubated overnight before assessment of Seap activity.

[2] = test system: HEK-Blue IL-1β cells stimulated with hIL-1α; assay: HEK293 reporter gene assay, hIL-1α as trigger; assay type: cell-based, human
Method: as §1

IL-1β = IL-1β (Homo sapiens, UniProt P01584); assay: protein-observed 1H-13C-HMQC NMR binding (I/Io of Leu60 Cδ1H3); parameters: Mature hIL-1β was expressed in Escherichia coli; made in house; host or cells: Escherichia coli BL21 (DE3), pET17b
Method: ^1H–^13C- and ^1H–^15N-HMQC spectra were recorded on Bruker AVANCE 600 MHz and 800 MHz spectrometers equipped with TXI-cryocooled probeheads. In ligand binding experiments, protein concentrations were typically 50 μM in PBS, pH 7.4. Backbone assignments of hIL-1β in the ligand-bound state and unliganded state were obtained by a combination of a 3D triple resonance experiment HNCACB and a ^15N-edited NOESY spectrum, which were processed using TOPSPIN 3.2 and analyzed using CcpNmr AnalysisAssign 3.1.0[46]. ^15N-CEST experiments were run at weak B1 radiofrequency fields of 25 and 12.5 Hz on a Bruker AVANCE 800 MHz spectrometer with 113 increments and a total sweep width of 28 ppm in the pseudo-3D dimension. Peak intensities were extracted by fitting pseudo-Voigt lineshape models using peakipy (https://github.com/j-brady/peakipy). Fitted peak intensities were subsequently used to generate CEST profiles, and exchange parameters were fitted using ChemEx (https://github.com/gbouvignies/ChemEx).
Supplementary Figure 2. 13C-NMR and 19F-NMR reporter assays to monitor early
13C-HMQC spectra of hIL-1b (50 µM) were acquired in the presence (red) and absence (blue) of 500
µM compound and rows were extracted at the w1-frequency of the peak corresponding to Leu60 […]

[3] = test system: normal human dermal fibroblasts stimulated with hIL-1β; assay: Human fibroblast IL-6 release assay, hIL-1β stimulated; assay type: cell-based; parameters: IL-6, average / inhibition, replicates of EXP1, EXP2, EXP3 / inhibition, Mean / IL-1beta (mean, SD): mean readout (IL-6 release): unit not given here; conditions: for Mean OD (OD 450nm) / IL-1beta (mean, SD): mean readout (IL-6 release): Figure 3c; for Mean OD (OD 450nm): compound 1 nM; for IL-1beta (mean, SD): mean readout (IL-6 release): compound @ 1nM
Method: as §1
(§2) Normal human dermal fibroblasts (NHDF) from Clonetics^TM (LONZA, Cat # CC-2509 (NHDF-Neo), Lot # 0000234242, used at passage ≤14) were seeded at a density of 5000 cells/well in 100 μL of culture medium using 96-well plates (flat bottom, TCT). Treatment with cytokines/compounds was performed as described above. Cells were incubated for another 6 h and were subsequently spun down (320g/3 min). IL-6 was measured in the supernatant by ELISA (BioLegend, # 430503) or HTRF (Cisbio, #62HIL06PEH).

[4] = test system: normal human dermal fibroblasts stimulated with hIL-1α; assay: Human fibroblast IL-6 release assay, hIL-1α stimulated; assay type: cell-based; parameters: IL-1alpha (mean, SD): mean readout (IL-6 release): unit not given here; conditions: for Mean OD (OD 450nm) / IL-1alpha (mean, SD): mean readout (IL-6 release): Figure 3c; for Mean OD (OD 450nm): compound 1 nM; for IL-1alpha (mean, SD): mean readout (IL-6 release): compound @ 1nM
Method: as §1, §2

IL-1β, sequence (P01584 117-269): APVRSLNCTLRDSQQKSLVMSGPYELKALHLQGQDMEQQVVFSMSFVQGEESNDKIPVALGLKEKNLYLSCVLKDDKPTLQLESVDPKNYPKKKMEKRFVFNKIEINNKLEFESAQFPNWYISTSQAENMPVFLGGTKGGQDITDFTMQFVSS

Compound: Cc1ccc2c(c1)NC(=O)[C@@]2(c1cn[nH]c1)c1cc(-c2ccc(C(=O)O)cc2C(=O)O)ccc1O [(S) 2]
- reporter gene assay signal, mean (Figure 3d) ([1]; IL-1beta 3.04596 pg/ml, inhibitor 50uM): 0.06
- reporter gene assay signal, mean (Figure 3d) ([1]; IL-1beta 6.09192 pg/ml, inhibitor 50uM): 0.06
- reporter gene assay signal, mean (Figure 3d) ([1]; IL-1beta 12.1838 pg/ml, inhibitor 50uM): 0.06
- reporter gene assay signal, mean (Figure 3d) ([1]; IL-1beta 24.3677 pg/ml, inhibitor 50uM): 0.08
- reporter gene assay signal, mean (Figure 3d) ([1]; IL-1beta 48.7353 pg/ml, inhibitor 50uM): 0.1
- reporter gene assay signal, mean (Figure 3d) ([1]; IL-1beta 97.4707 pg/ml, inhibitor 50uM): 0.17
- reporter gene assay signal, mean (Figure 3d) ([1]; IL-1beta 194.941 pg/ml, inhibitor 50uM): 0.41
- reporter gene assay signal, mean (Figure 3d) ([1]; IL-1beta 389.883 pg/ml, inhibitor 50uM): 0.84
- reporter gene assay signal, mean (Figure 3d) ([1]; IL-1beta 779.766 pg/ml, inhibitor 50uM): 1.26
- reporter gene assay signal, mean (Figure 3d) ([1]; IL-1beta 1559.53 pg/ml, inhibitor 50uM): 1.6
- reporter gene assay signal, mean (Figure 3d) ([1]; IL-1beta 3119.06 pg/ml, inhibitor 50uM): 1.74
- reporter gene assay signal, mean (Figure 3d) ([1]; IL-1beta 6238.12 pg/ml, inhibitor 50uM): 1.87
- reporter gene assay signal, mean (Figure 3d) ([1]; IL-1beta 12476.2 pg/ml, inhibitor 50uM): 1.96
- reporter gene assay signal, mean (Figure 3d) ([1]; IL-1beta 24952.5 pg/ml, inhibitor 50uM): 2.06
- reporter gene assay signal, mean (Figure 3d) ([1]; IL-1beta 49905 pg/ml, inhibitor 50uM): 2.02
- reporter gene assay signal, mean (Figure 3d) ([2]; IL-1alpha 3.04596 pg/ml, inhibitor 50uM): 0.08
- reporter gene assay signal, mean (Figure 3d) ([2]; IL-1alpha 6.09192 pg/ml, inhibitor 50uM): 0.1
- reporter gene assay signal, mean (Figure 3d) ([2]; IL-1alpha 12.1838 pg/ml, inhibitor 50uM): 0.15
- reporter gene assay signal, mean (Figure 3d) ([2]; IL-1alpha 24.3677 pg/ml, inhibitor 50uM): 0.1
- reporter gene assay signal, mean (Figure 3d) ([2]; IL-1alpha 48.7353 pg/ml, inhibitor 50uM): 0.59
- reporter gene assay signal, mean (Figure 3d) ([2]; IL-1alpha 97.4707 pg/ml, inhibitor 50uM): 1.08
- reporter gene assay signal, mean (Figure 3d) ([2]; IL-1alpha 194.941 pg/ml, inhibitor 50uM): 1.42
- reporter gene assay signal, mean (Figure 3d) ([2]; IL-1alpha 389.883 pg/ml, inhibitor 50uM): 1.67
- reporter gene assay signal, mean (Figure 3d) ([2]; IL-1alpha 779.766 pg/ml, inhibitor 50uM): 1.82
- reporter gene assay signal, mean (Figure 3d) ([2]; IL-1alpha 1559.53 pg/ml, inhibitor 50uM): 1.88
- reporter gene assay signal, mean (Figure 3d) ([2]; IL-1alpha 3119.06 pg/ml, inhibitor 50uM): 1.91
- reporter gene assay signal, mean (Figure 3d) ([2]; IL-1alpha 6238.12 pg/ml, inhibitor 50uM): 1.96
- reporter gene assay signal, mean (Figure 3d) ([2]; IL-1alpha 12476.2 pg/ml, inhibitor 50uM): 1.97
- reporter gene assay signal, mean (Figure 3d) ([2]; IL-1alpha 24952.5 pg/ml, inhibitor 50uM): 2.03
- reporter gene assay signal, mean (Figure 3d) ([2]; IL-1alpha 49905 pg/ml, inhibitor 50uM): 2.01

Compound: O=C1Nc2cc(C(F)(F)F)ccc2[C@@]1(O)c1cc(Cl)ccc1O [Compound (R)-1]
- binding to hIL-1β by protein-observed NMR (IL-1β): only enantiomer (S)-1 showed binding to the protein

Compound: anakinra: IL-1R1 antagonist [reference compound]
- block of hIL-1β driven IL-6 release [3]: could block the release of IL-6
- Mean OD (OD 450nm) ([3]; hu IL-1b 0 pg/mL): 0.034
- IL-1beta (mean, SD): mean readout (IL-6 release) ([3]; hu IL-1b 0 pg/mL): 0
- Mean OD (OD 450nm) ([3]; hu IL-1b 40 pg/mL): 0.047
- IL-1beta (mean, SD): mean readout (IL-6 release) ([3]; hu IL-1b 40 pg/mL): 0
- Mean OD (OD 450nm) ([3]; hu IL-1b 80 pg/mL): 0.079
- IL-1beta (mean, SD): mean readout (IL-6 release) ([3]; hu IL-1b 80 pg/mL): 0
- Mean OD (OD 450nm) ([3]; hu IL-1b 120 pg/mL): 0.102
- IL-1beta (mean, SD): mean readout (IL-6 release) ([3]; hu IL-1b 120 pg/mL): 0
- Mean OD (OD 450nm) ([3]; hu IL-1b 160 pg/mL): 0.157
- IL-1beta (mean, SD): mean readout (IL-6 release) ([3]; hu IL-1b 160 pg/mL): 404.5
- Mean OD (OD 450nm) ([3]; hu IL-1b 200 pg/mL): 0.162
- IL-1beta (mean, SD): mean readout (IL-6 release) ([3]; hu IL-1b 200 pg/mL): 439.1
- effect on hIL-1α driven IL-6 release [4]: could block the release of IL-6
- Mean OD (OD 450nm) ([4]; hu IL-1A 0 pg/mL): 0.042
- Mean OD (OD 450nm) ([4]; hu IL-1A 40 pg/mL): 0.05
- Mean OD (OD 450nm) ([4]; hu IL-1A 80 pg/mL): 0.061
- Mean OD (OD 450nm) ([4]; hu IL-1A 120 pg/mL): 0.067
- Mean OD (OD 450nm) ([4]; hu IL-1A 160 pg/mL): 0.073
- Mean OD (OD 450nm) ([4]; hu IL-1A 200 pg/mL): 0.103
- IL-1alpha (mean, SD): mean readout (IL-6 release) ([4]; hu IL-1a 0 pg/mL): 0
- IL-1alpha (mean, SD): mean readout (IL-6 release) ([4]; hu IL-1a 40 pg/mL): 0
- IL-1alpha (mean, SD): mean readout (IL-6 release) ([4]; hu IL-1a 80 pg/mL): 0
- IL-1alpha (mean, SD): mean readout (IL-6 release) ([4]; hu IL-1a 120 pg/mL): 0
- IL-1alpha (mean, SD): mean readout (IL-6 release) ([4]; hu IL-1a 160 pg/mL): 0
- IL-1alpha (mean, SD): mean readout (IL-6 release) ([4]; hu IL-1a 200 pg/mL): 3.7
- reporter gene assay signal, mean (Figure 3d) ([1]; IL-1beta 3.04596 pg/ml, inhibitor 3nM): 0.06
- reporter gene assay signal, mean (Figure 3d) ([1]; IL-1beta 6.09192 pg/ml, inhibitor 3nM): 0.06
- reporter gene assay signal, mean (Figure 3d) ([1]; IL-1beta 12.1838 pg/ml, inhibitor 3nM): 0.06
- reporter gene assay signal, mean (Figure 3d) ([1]; IL-1beta 24.3677 pg/ml, inhibitor 3nM): 0.06
- reporter gene assay signal, mean (Figure 3d) ([1]; IL-1beta 48.7353 pg/ml, inhibitor 3nM): 0.06
- reporter gene assay signal, mean (Figure 3d) ([1]; IL-1beta 97.4707 pg/ml, inhibitor 3nM): 0.07
- reporter gene assay signal, mean (Figure 3d) ([1]; IL-1beta 194.941 pg/ml, inhibitor 3nM): 0.08
- reporter gene assay signal, mean (Figure 3d) ([1]; IL-1beta 389.883 pg/ml, inhibitor 3nM): 0.09
- reporter gene assay signal, mean (Figure 3d) ([1]; IL-1beta 779.766 pg/ml, inhibitor 3nM): 0.17
- reporter gene assay signal, mean (Figure 3d) ([1]; IL-1beta 1559.53 pg/ml, inhibitor 3nM): 0.37
- reporter gene assay signal, mean (Figure 3d) ([1]; IL-1beta 3119.06 pg/ml, inhibitor 3nM): 0.68
- reporter gene assay signal, mean (Figure 3d) ([1]; IL-1beta 6238.12 pg/ml, inhibitor 3nM): 1.15
- reporter gene assay signal, mean (Figure 3d) ([1]; IL-1beta 12476.2 pg/ml, inhibitor 3nM): 1.43
- reporter gene assay signal, mean (Figure 3d) ([1]; IL-1beta 24952.5 pg/ml, inhibitor 3nM): 1.66
- reporter gene assay signal, mean (Figure 3d) ([1]; IL-1beta 49905 pg/ml, inhibitor 3nM): 1.81
- reporter gene assay signal, mean (Figure 3d) ([2]; IL-1alpha 3.04596 pg/ml, inhibitor 3nM): 0.06
- reporter gene assay signal, mean (Figure 3d) ([2]; IL-1alpha 6.09192 pg/ml, inhibitor 3nM): 0.06
- reporter gene assay signal, mean (Figure 3d) ([2]; IL-1alpha 12.1838 pg/ml, inhibitor 3nM): 0.06
- reporter gene assay signal, mean (Figure 3d) ([2]; IL-1alpha 24.3677 pg/ml, inhibitor 3nM): 0.06
- reporter gene assay signal, mean (Figure 3d) ([2]; IL-1alpha 48.7353 pg/ml, inhibitor 3nM): 0.06
- reporter gene assay signal, mean (Figure 3d) ([2]; IL-1alpha 97.4707 pg/ml, inhibitor 3nM): 0.06
- reporter gene assay signal, mean (Figure 3d) ([2]; IL-1alpha 194.941 pg/ml, inhibitor 3nM): 0.07
- reporter gene assay signal, mean (Figure 3d) ([2]; IL-1alpha 389.883 pg/ml, inhibitor 3nM): 0.08
- reporter gene assay signal, mean (Figure 3d) ([2]; IL-1alpha 779.766 pg/ml, inhibitor 3nM): 0.09
- reporter gene assay signal, mean (Figure 3d) ([2]; IL-1alpha 1559.53 pg/ml, inhibitor 3nM): 0.15
- reporter gene assay signal, mean (Figure 3d) ([2]; IL-1alpha 3119.06 pg/ml, inhibitor 3nM): 0.24
- reporter gene assay signal, mean (Figure 3d) ([2]; IL-1alpha 6238.12 pg/ml, inhibitor 3nM): 0.46
- reporter gene assay signal, mean (Figure 3d) ([2]; IL-1alpha 12476.2 pg/ml, inhibitor 3nM): 0.84
- reporter gene assay signal, mean (Figure 3d) ([2]; IL-1alpha 24952.5 pg/ml, inhibitor 3nM): 1.11
- reporter gene assay signal, mean (Figure 3d) ([2]; IL-1alpha 49905 pg/ml, inhibitor 3nM): 1.47
